Assay results as given in patent US10077261B2, “Imidazolin-5-one derivative useful as FASN inhibitors for the treatment of cancer” (Janssen Pharmaceutica NV, priority 2012, dated 2018).

What was measured:
[1] = target: T1, hFASN enzyme (full length) (Homo sapiens, UniProt P49327); assay: Fatty Acid Synthase (FASN) inhibition scintillation proximity assay; format: biochemical; conditions: for inhibition at 10 µM: read-out: Human FASN % inhibition @ 10 μM, 10 μM test compound; for IC50: read-out: Human FASN pIC50 (converted)
T1 construct: 10 μL hFASN enzyme (full length, 300 ng, purified in house); made in house
T1 sequence (P49327 whole entry): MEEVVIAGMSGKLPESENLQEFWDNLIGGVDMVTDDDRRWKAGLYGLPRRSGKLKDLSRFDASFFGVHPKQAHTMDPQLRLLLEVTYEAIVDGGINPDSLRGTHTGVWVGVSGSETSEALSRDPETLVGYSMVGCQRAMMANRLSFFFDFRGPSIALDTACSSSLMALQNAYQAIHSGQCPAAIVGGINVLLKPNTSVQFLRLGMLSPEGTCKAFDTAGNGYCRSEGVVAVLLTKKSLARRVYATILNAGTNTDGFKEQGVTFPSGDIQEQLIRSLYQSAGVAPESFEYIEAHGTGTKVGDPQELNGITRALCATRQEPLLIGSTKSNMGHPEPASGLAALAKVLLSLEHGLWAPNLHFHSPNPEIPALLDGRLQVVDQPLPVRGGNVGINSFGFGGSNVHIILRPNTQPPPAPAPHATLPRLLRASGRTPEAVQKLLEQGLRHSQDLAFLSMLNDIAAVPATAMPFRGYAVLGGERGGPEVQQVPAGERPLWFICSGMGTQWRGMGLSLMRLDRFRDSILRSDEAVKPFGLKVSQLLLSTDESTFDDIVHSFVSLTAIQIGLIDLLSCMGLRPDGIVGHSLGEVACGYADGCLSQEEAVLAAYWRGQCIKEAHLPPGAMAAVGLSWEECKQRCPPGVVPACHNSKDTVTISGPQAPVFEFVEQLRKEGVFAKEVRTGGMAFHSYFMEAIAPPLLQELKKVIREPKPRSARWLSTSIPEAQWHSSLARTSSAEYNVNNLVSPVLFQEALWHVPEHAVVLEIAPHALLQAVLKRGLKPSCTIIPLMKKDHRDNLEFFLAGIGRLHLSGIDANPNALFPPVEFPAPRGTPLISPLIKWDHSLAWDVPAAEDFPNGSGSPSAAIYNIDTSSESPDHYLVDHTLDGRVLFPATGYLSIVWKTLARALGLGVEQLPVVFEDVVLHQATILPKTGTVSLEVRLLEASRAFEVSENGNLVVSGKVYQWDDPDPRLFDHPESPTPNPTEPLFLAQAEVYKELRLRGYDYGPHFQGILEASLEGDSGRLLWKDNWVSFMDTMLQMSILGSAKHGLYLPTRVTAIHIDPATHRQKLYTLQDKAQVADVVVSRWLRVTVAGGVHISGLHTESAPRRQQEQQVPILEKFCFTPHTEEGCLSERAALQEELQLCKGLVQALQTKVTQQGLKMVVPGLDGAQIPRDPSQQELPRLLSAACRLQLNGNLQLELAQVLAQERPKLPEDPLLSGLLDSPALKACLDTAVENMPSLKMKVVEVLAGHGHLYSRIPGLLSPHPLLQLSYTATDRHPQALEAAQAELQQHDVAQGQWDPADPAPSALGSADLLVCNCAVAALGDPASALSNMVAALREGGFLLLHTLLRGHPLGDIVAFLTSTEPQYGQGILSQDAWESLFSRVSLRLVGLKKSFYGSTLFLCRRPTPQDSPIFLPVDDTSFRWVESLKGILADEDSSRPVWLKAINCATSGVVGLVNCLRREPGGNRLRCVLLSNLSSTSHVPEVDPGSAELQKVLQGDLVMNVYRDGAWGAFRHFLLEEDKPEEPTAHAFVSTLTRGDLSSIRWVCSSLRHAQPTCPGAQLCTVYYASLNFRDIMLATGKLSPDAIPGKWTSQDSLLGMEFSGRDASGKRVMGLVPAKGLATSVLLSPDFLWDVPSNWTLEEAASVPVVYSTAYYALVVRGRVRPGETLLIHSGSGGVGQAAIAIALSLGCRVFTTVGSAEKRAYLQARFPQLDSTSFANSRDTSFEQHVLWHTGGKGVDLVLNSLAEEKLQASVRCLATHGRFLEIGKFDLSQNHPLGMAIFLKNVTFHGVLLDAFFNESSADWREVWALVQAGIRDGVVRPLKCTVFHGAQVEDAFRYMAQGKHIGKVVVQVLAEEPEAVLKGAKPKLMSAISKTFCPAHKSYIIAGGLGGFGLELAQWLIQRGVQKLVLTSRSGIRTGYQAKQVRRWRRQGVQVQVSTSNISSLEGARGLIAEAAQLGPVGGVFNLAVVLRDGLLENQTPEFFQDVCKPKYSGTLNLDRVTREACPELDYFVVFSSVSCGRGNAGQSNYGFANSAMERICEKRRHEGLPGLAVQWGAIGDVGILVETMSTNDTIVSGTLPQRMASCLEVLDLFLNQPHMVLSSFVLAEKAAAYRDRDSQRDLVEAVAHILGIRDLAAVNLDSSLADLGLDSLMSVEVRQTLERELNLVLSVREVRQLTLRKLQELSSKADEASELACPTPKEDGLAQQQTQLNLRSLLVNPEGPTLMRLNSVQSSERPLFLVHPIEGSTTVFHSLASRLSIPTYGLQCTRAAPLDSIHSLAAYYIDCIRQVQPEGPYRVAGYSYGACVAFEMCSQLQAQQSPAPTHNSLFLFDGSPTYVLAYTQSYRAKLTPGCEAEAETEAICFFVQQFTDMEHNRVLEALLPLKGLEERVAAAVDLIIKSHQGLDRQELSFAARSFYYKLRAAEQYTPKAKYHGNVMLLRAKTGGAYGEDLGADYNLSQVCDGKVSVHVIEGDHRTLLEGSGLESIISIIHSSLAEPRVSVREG
Method in brief: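 Purified full-length hFASN (300 ng) converts ^3H-acetyl-CoA plus malonyl-CoA to ^3H-palmitate in 100 mM KH2PO4 pH 7.5, 1 mM DTT; compounds tested at 0.01–30 μM. Product captured on streptavidin imaging beads and read by LEADseeker at 610 nm after ≥24 h; 4-parameter logistic fit versus controls.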

A2780 ovarian cells [2] = assay: A2780 ovarian cell proliferation assay in lipid reduced medium, with palmitate (MTT); format: cell-based; conditions: Homo sapiens, A2780, 96 h; read-out: pIC50 A2780 Ovarian Cell, With Palmitate (converted)
Method in brief: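 Seeded cells were switched next day to lipid-reduced serum, exposed to compound and 25 μM palmitate complexed with fatty-acid-free BSA, and incubated 96 h. Proliferation was then determined by MTT absorbance at 544 nm, with a best-fit curve of signal against concentration.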

A2780 ovarian cells [3] = assay: A2780 ovarian cell proliferation assay in lipid reduced medium, without palmitate (MTT); format: cell-based; conditions: Homo sapiens, A2780, 96 h; read-out: pIC50 A2780 Ovarian Cell, Without Palmitate (converted)
[4] = system: LNCaP-Vancouver prostate cells; assay: In vitro LNCaP Vancouver prostate cell proliferation assay in lipid reduced medium; format: cell-based; conditions: read-out: pIC50 LNCaP_Vancouver prostate cell (converted)
Description: LNCaP-Vancouver prostate cells were obtained from the Vancouver Prostate Cancer Centre. Cells were maintained in RPMI-1640, 10% Fetal Calf Serum (FCS, Hyclone), 2 mM glutamine and 50 μg/ml Gentamicin.
For the proliferation experiment 1500 LNCaP-Vancouver cells per well were seeded in a 384-well black with clear bottom plate (costar 3712BC) in 40 μl RPMI-1640, 10% Lipid reduced serum (LRS, Hyclone), 50 μg/ml Gentamicin and 2 mM Glutamine and incubated at 37° C., 5% CO2. The next day 10 μl of test compound/DMSO diluted in medium was added (3E-5M, 1E-5M, 3E-6M, 1E-6M, 3E-7M, 1E-7M, 3E-8M, 1E-8M final concentration). Compounds were tested in duplicate. After 96 h incubation at 37° C., 5% CO2 25 μl ATP-glow mix was added. The plate was incubated for 30 min at 37° C. and luminescence was measured with the Envision.
Analysis: Determination of pIC50 Values
pIC50 values were calculated as follows.
where mLC and mHC are the means of the low control wells and high control wells on the plate, after manual exclusion of outliers. The relation between the % Controlmin values and concentration was fitted to a 4-parameter logistic curve using a non-linear least squares regression method to determine the pIC50 value. Outlying data points were excluded manually to get a correct fit. The pIC50 corresponds to −log 10(IC50), if the IC50 is expressed in molar units (http://www.ncbi.nlm.nih.gov/books/NBK91994). The IC50 parameter was always determined by non-linear regression, but one or more of the other parameters may have been held fixed on a relevant input value, such as 0 for the bottom values.
For dose response curves with FASN inhibitors in LNCaP-Vancouver or PC-3M-Luc-C6 cells the curves bottom out around 30 to 40% of the control value. A standard fit PL2, forcing the lower bound to this level was used.
Representative compounds of the present invention were tested according to the procedure as described in Biological Example 4a and 4b above, with results as listed in Table 9, below.

[5] = target: Fatty Acid Synthase Keto-reductase Domain (FASN KR) (Homo sapiens, UniProt P49327); assay: Fatty Acid Synthase keto-reductase domain (FASN KR) inhibition, NADPH oxidation at 340 nm
Fatty Acid Synthase Keto-reductase Domain (FASN KR), sequence (P49327 whole entry, the tested form may be a part): as the sequence (P49327 whole entry) above
Description: After 20 minutes incubation at room temperature the plate was measured again (T2).
The decrease in absorbance was calculated as (Absorbance before incubation T1)−(Absorbance following incubation T2).
A plot of Controlmin versus test compound concentration was fitted to a 4-parameter logistic curve using a non-linear least squares regression method.

Compound | inhibition at 10 µM [1] | IC50 [1] | IC50 (A2780 ovarian cells [2]) | IC50 (A2780 ovarian cells [3]) | IC50 [4] | IC50 [5]
Cc1cc(-c2ccc3c(cnn3C)c2)ccc1C1=NC2(CC2)C(=O)N1CC1CN(C(=O)C(C)C)C1 [compound 473, 5-[2-Methyl-4-(1-methyl-1H-indazol-5-yl)phenyl]-6-{[1-(2-methylpropanoyl)azetidin-3-yl]methyl}-4,6-diazaspiro[2.4]hept-4-en-7-one] | 95% | 269 nM | > 10 µM | ~275 nM | 2190 nM | 525 nM
O=C([C@H]1CCCO1)N1CC(CN2C(=O)C3(CCOC3)N=C2c2ccc(-c3ccc4cccnc4c3)cc2)C1 (stereo partly drawn) [compound 716, 2-(4-Quinolin-7-ylphenyl)-3-({1-[(2R)-tetrahydro-furan-2-ylcarbonyl]azetidin-3-yl}methyl)-7-oxa-1,3-diazaspiro[4.4]non-1-en-4-one] | 88% | 398 nM | > 10 µM | 513 nM | 5500 nM | 1050 nM
Cc1cc(C2=NC3(CC3)C(=O)N2CC2CN(C(=O)C3CC3)C2)ccc1-c1ccc2[nH]ccc2c1 [compound 435, 6-{[1-(Cyclopropylcarbonyl)azetidin-3-yl]methyl}-5-[4-(1H-indol-5-yl)-3-methylphenyl]-4,6-diazaspiro[2.4]hept-4-en-7-one] | 91% | 263 nM | > 10 µM | ~933 nM | 3470 nM | 1230 nM
Cn1cc2cc(-c3ccc(C4=NC5(CC5)C(=O)N4CC4CN(C(=O)C5CC5)C4)c(F)c3)ccc2n1 [compound 644, 6-{[1-(Cyclopropylcarbonyl)azetidin-3-yl]methyl}-5-[2-fluoro-4-(2-methyl-2H-indazol-5-yl)phenyl]-4,6-diazaspiro[2.4]hept-4-en-7-one] | 97% | 178 nM | > 10 µM | 162 nM | 2820 nM | 1450 nM
Cc1cc(-c2ccc3c(cnn3C)c2)ccc1C1=NC2(CC2)C(=O)N1CC1CN(C(=O)C2(CO)CC2)C1 [compound 480, 6-[(1-{[1-(Hydroxymethyl)cyclopropyl]carbonyl}azetidin-3-yl)methyl]-5-[2-methyl-4-(1-methyl-1H-indazol-5-yl)phenyl]-4,6-diazaspiro[2.4]hept-4-en-7-one] | 97% | 155 nM | > 10 µM | ~257 nM | 1150 nM | 525 nM
Cc1sc2ccc(-c3ccc(C4=NC5(CC5)C(=O)N4C[C@@H]4CCN(C(=O)C5CC5)C4)cc3F)cc2c1C [compound 406, 6-{[(3R)-1-(Cyclopropylcarbonyl)pyrrolidin-3-yl]methyl}-5-[4-(2,3-dimethyl-1-benzothiophen-5-yl)-3-fluorophenyl]-4,6-diazaspiro[2.4]hept-4-en-7-one] | 99% | 126 nM | > 10 µM | 6030 nM | 7080 nM | 363 nM
Cc1cc(-c2cccc(SC3CC3)c2)ccc1C1=NC2(CC2)C(=O)N1C[C@@H]1CCN(C(=O)C2CC2)C1 [compound 642, 6-{[(3R)-1-(Cyclopropylcarbonyl)pyrrolidin-3-yl]methyl}-5-[3′-(cyclopropylsulfanyl)-3-methylbiphenyl-4-yl]-4,6-diazaspiro[2.4]hept-4-en-7-one] | 99% | 219 nM | > 10 µM | ~3800 nM | 6170 nM | 776 nM
O=C(C1CC1)N1CC[C@@H](CN2C(=O)C3(CC3)N=C2c2ccc(-c3cccc4[nH]ncc34)cn2)C1 [compound 429, 6-{[(3R)-1-(Cyclopropylcarbonyl)pyrrolidin-3-yl]methyl}-5-[5-(1H-indazol-4-yl)pyridin-2-yl]-4,6-diazaspiro[2.4]hept-4-en-7-one] | 96% | 240 nM | > 10 µM | 417 nM | 1320 nM | 513 nM
Cc1cc(-c2ccc(C#N)cc2F)ccc1C1=NC2(CC2)C(=O)N1CC1CN(C(=O)C2(C)CC2)C1 [compound 580] | 108% | 123 nM | > 10 µM | 56.2 nM | 759 nM | 603 nM

Now those with a lower IC50 [5], led by results:

inhibition at 10 µM [1] | IC50 [1] | IC50 (A2780 ovarian cells [2]) | IC50 (A2780 ovarian cells [3]) | IC50 [4] | IC50 [5] | Compound
88% | 162 nM | 6.17 µM | ~295 nM | 1100 nM | 166 nM | Cc1cc2cc(-c3ccc(C4=NC5(CC5)C(=O)N4CC4CN(C(=O)C5CC5)C4)c(F)c3)ccc2s1 [compound 548, 6-{[1-(Cyclopropylcarbonyl)azetidin-3-yl]methyl}-5-[2-fluoro-4-(2-methyl-1-benzothiophen-5-yl)phenyl]-4,6-diazaspiro[2.4]hept-4-en-7-one]
104% | 70.8 nM | > 10 µM | 95.5 nM | 851 nM | 158 nM | CS(=O)(=O)N1CCC2(CC1)N=C(c1ccc(-c3ccc4[nH]ccc4c3)cc1)N(C[C@@H]1CCN(C(=O)C3CC3)C1)C2=O [compound 745, 3-{[(3R)-1-(Cyclopropylcarbonyl)pyrrolidin-3-yl]methyl}-2-[4-(1H-indol-5-yl)phenyl]-8-(methylsulfonyl)-1,3,8-triazaspiro[4.5]dec-1-en-4-one]
98% | 115 nM | > 10 µM | ~214 nM | 851 nM | 251 nM | CC(C)N1CCC2(CC1)N=C(c1ccc(-c3ccc4[nH]ccc4c3)cc1)N(C[C@@H]1CCN(C(=O)C3CC3)C1)C2=O [compound 744, 3-{[(3R)-1-(Cyclopropylcarbonyl)pyrrolidin-3-yl]methyl}-2-[4-(1H-indol-5-yl)phenyl]-8-(1-methylethyl)-1,3,8-triazaspiro[4.5]dec-1-en-4-one]
98% | 49 nM | > 10 µM | ~50.1 nM | 708 nM | 120 nM | Cn1ncc2cc(-c3ccc(C4=NC5(CC5)C(=O)N4CC4CN(C(=O)C5CC5)C4)c(F)c3)ccc21 [compound 347, 6-((1-(cyclopropanecarbonyl)azetidin-3-yl)methyl)-5-(2-fluoro-4-(1-methyl-1H-indazol-5-yl)phenyl)-4,6-diazaspiro[2.4]hept-4-en-7-one]
102% | 151 nM | > 10 µM | 170 nM | 1350 nM | 309 nM | Cc1cc(-c2cccc(NC(=O)C3CC3)c2)ccc1C1=NC2(CC2)C(=O)N1C[C@@H]1CCN(C(=O)C2CC2)C1 [compound 614, N-[4′-(6-{[(3R)-1-(Cyclopropylcarbonyl)pyrrolidin-3-yl]methyl}-7-oxo-4,6-diazaspiro[2.4]hept-4-en-5-yl)-3′-methylbiphenyl-3-yl]cyclopropanecarboxamide]
98% | 135 nM | > 10 µM | 89.1 nM | 724 nM | 166 nM | O=C(C1CC1)N1CC[C@@H](CN2C(=O)C3(CCN(C(=O)C(F)(F)F)CC3)N=C2c2ccc(-c3ccc4[nH]ccc4c3)cc2)C1 [compound 751, 3-{[(3R)-1-(Cyclopropylcarbonyl)pyrrolidin-3-yl]methyl}-2-[4-(1H-indol-5-yl)phenyl]-8-(trifluoroacetyl)-1,3,8-triazaspiro[4.5]dec-1-en-4-one]
